In patent US6380238B1, “Indoline derivatives as 5-HT2B and or 5-HTC receptor ligands” (Vernalis Research Limited, priority 1998, dated 2002):
Structures can show the parent of a compound that is named as a salt. Where two headings read alike, the source gives them in different places.

Legend:
5-HT2A receptor = 5-HT2A receptor (Homo sapiens, UniProt P28223); assay: Functional activity, FLIPR calcium assay in CHO cells expressing human 5-HT2A; assay type: cell-based; design: expressed in transfected cells; host or cells: CHO cells; conditions: for Emax: CHO, read-out: h5-HT2A Relative Efficacy (%)
Method: (§1) The functional activity of compounds of formula (I) was assayed using a Fluorimetric Imaging Plate reader (FLIPR). CHO cells expressing the human 5-HT2C or human 5-HT2A receptors were counted and plated into standard 96 well microtitre plates on the day before testing to give a confluent monolayer. The cells were then dye loaded with the calcium sensitive dye, Fluo-3-AM. Unincorporated dye was removed using an automated cell washer to leave a total volume of 100 μL/well of assay buffer (Hanks balanced salt solution containing 20 mM Hepes and 2.5 mM probenecid). The drug (dissolved in 50 μL of the assay buffer) was added at a rate of 70 μL/sec to each well of the FLIPR 96 well plate during fluorescence measurements. The measurements were taken at 1 sec intervals and the maximum fluorescent signal was measured (approx 10-15 secs after drug addition) and compared with the response produced by 10 μM 5-HT (defined as 100%) to which it was expressed as a percentage response (relative efficacy). Dose response curves were constructed using Graphpad Prism (Graph Software Inc.).

5-HT2C receptor = target: T1, 5-HT2C receptor (Homo sapiens, UniProt P28335); assay: Functional activity, FLIPR calcium assay in CHO cells expressing human 5-HT2C; assay type: cell-based; design: expressed in transfected cells; host or cells: CHO cells; conditions: for Emax: CHO, read-out: h5-HT2C Relative Efficacy (%)
T1 sequence (P28335 33-458): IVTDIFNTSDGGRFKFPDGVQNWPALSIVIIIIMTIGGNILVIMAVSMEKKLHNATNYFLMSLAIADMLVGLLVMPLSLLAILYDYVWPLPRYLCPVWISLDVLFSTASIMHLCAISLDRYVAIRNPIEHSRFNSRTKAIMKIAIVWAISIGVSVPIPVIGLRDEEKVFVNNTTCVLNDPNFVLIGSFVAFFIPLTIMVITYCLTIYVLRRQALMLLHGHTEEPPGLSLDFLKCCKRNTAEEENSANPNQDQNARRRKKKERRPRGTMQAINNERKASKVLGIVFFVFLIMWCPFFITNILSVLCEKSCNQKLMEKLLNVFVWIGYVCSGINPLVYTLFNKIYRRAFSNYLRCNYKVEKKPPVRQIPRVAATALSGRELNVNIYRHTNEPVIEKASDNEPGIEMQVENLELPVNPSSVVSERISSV
Method: as §1

[1] = FLIPR, CHO cells, Fluo-3-AM, read-out: h5-HT2C EC50

Sequence of 5-HT2A receptor (P28223 whole entry): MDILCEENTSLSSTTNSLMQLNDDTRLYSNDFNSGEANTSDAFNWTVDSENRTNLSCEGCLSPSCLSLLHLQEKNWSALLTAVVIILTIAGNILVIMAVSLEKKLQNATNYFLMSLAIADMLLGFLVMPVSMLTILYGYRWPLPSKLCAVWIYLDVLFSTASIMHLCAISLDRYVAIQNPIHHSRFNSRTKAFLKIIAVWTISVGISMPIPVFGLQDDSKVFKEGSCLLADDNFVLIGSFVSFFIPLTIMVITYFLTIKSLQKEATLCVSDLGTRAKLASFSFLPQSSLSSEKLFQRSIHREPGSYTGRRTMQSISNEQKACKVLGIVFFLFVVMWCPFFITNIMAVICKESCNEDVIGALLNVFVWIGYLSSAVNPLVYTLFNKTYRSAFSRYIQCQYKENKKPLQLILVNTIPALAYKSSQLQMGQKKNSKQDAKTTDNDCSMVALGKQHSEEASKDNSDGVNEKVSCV

Row | SMILES | melting point | EC50 (5-HT2A receptor) [nM] | Emax (5-HT2A receptor) [%] | EC50 (5-HT2C receptor) [nM] | Emax (5-HT2C receptor) [%] | further results
1 | C[C@H](N)CN1CCc2cc(F)c(I)cc21 (as salt: fumarate) [Example 61, (S)-1-(5-Fluoro-6-iodoindolin-1-yl)-2-propylamine Fumarate] | 185 to 187 °C | – | – | – | – | –
2 | C[C@H](N)CN1CCc2cc(F)c(C(F)(F)F)cc21 (as salt: fumarate) [Example 60, (S)-1-(5-Fluoro-6-trifluoromethylindolin-1-yl)-2-propylamine Fumarate] | 190 to 192 °C | – | – | – | – | –
3 | C[C@@H](CN1CCc2ccc(Br)cc21)NCc1ccncc1 (as salt: HCl) | 202 to 204 °C | – | – | – | – | –
4 | C[C@H](N)CN1CCc2cccc(Br)c21 (as salt: fumarate) [Example 20] | 202 to 204 °C | – | – | – | – | –
5 | CSc1cc2c(cc1F)CCN2CC(C)N (stereo not drawn) [Example 30] | – | 72 | 88 | 0.1 | 95 | –
6 | CC(C)Sc1ccc2c(c1)N(C[C@H](C)N)CC2 [Example 42] | – | 4200 | 43 | 54 | 88 | –
7 | C[C@H](N)CN1CCc2cc(F)cc(Cl)c21 [Example 17] | – | 7500 | 40 | 616 | 76 | –
8 | C[C@@H](CN1CCc2ccc(Br)cc21)NCC1CCCCC1 (as salt: HCl) | 208 to 210 °C | – | – | – | – | –
9 | CN(C)CCN1CCc2ccc(Cl)cc21 (as salt: fumarate) | 144 to 146 °C | – | – | – | – | –
10 | C[C@H](N)CN1CCc2cccc(Br)c21 [Example 20] | – | – | 17 | 750 | 68 | –
11 | CSc1ccc2c(c1)N(C[C@H](C)N)CC2 [Example 39] | – | 260 | 75 | 4 | 87 | –
12 | CC(N)CN1CCc2ccc(Cl)cc21 (racemic) (as salt: hydrochloride) [Example 1, (RS)-1-(6-Chloroindolin-1-yl)-2-propylamine Hydrochloride] | 262 °C | – | – | – | – | –
13 | C[C@@H](N)CN1CCc2ccc(Br)cc21 [Example 18] | – | – | 7 | 870 | 27 | –
14 | C[C@H](N)CN1CCc2cc(F)ccc21 (as salt: fumarate) [Example 29] | 175 to 176 °C | – | – | – | – | –
15 | Cc1cc2c(cc1Cl)N(C[C@H](C)N)CC2 [Example 14] | – | 3700 | 55 | 2120 | 71 | –
16 | COc1ccc2c(c1)N(CC(C)N)CC2 (racemic) (as salt: hydrochloride) [Example 2, (RS)-1-(6-Methoxyindolin-1-yl)-2-propylamine Hydrochloride] | 142 to 143 °C | – | – | – | – | –
17 | C[C@H](N)CN1CCc2ccc(-c3ccccc3)cc21.O=C(O)/C=C/C(=O)O | 153 to 154 °C | – | – | – | – | –
18 | C[C@H](N)CN1CCc2ccc(-c3cccnc3)cc21 [Example 47] | – | – | 5 | 3540 | 33 | –
19 | C[C@H](N)CN1CCc2cc(F)c(F)cc21 (as salt: fumarate) [Example 22] | 165 °C (dec.) | – | – | – | – | –
20 | Cc1cccc2c1CCN2C[C@H](C)N (as salt: fumarate) [Example 32] | 161 to 162 °C | – | – | – | – | –
21 | COc1ccc2c(c1)N(CC(C)N)CC2 (racemic) [Example 2, (RS)-1-(6-Methoxyindolin-1-yl)-2-propylamine Hydrochloride] | – | 1000 | 63 | 100 | 77 | –
22 | Cc1ccc2c(c1)N(C[C@H](C)N)CC2 [Example 64, (S)-1-(6-Methylindolin-1-yl)-2-propylamine Fumarate] | – | – | 30 | 303 | 66 | –
23 | C[C@@H](N)CN1CCc2cccc(Br)c21 [Example 19] | – | – | 21 | 3800 | 34 | –
24 | C[C@H](N)CN1CCc2cc(F)c(C(F)(F)F)cc21 [Example 60, (S)-1-(5-Fluoro-6-trifluoromethylindolin-1-yl)-2-propylamine Fumarate] | – | – | – | 36 | 81 | –
25 | Cc1ccc2c(c1)N(CC(C)N)CC2 (stereo not drawn) (as salt: HCl) | 178 to 179 °C | – | – | – | – | –
26 | C[C@H](N)CN1CCc2ccc(Cl)c(F)c21 [Example 27] | – | 1980 | 41 | 233 | 75 | –

Row | SMILES | melting point | EC50 (5-HT2A receptor) [nM] | Emax (5-HT2A receptor) [%] | EC50 (5-HT2C receptor) [nM] | Emax (5-HT2C receptor) [%] | further results
27 | C[C@H](N)CN1CCc2cc(F)c(I)cc21 [Example 61, (S)-1-(5-Fluoro-6-iodoindolin-1-yl)-2-propylamine Fumarate] | – | 2180 | 49 | 26 | 68 | –
28 | C[C@H](N)CN1CCc2c(Cl)cccc21 [Example 38] | – | 2560 | 26 | 320 | 63 | –
29 | COc1cccc2c1N(C[C@H](C)N)CC2 (as salt: fumarate) | 155 to 156 °C (dec.) | – | – | – | – | –
30 | CCC(N)CN1CCc2ccc(Cl)cc21 (stereo not drawn) (as salt: HCl) | 188 to 192 °C | – | – | – | – | –
31 | C[C@H](N)CN1CCc2ccc(-c3cccnc3)cc21 (as salt: fumarate) [Example 47] | 155 °C (dec.) | – | – | – | – | –
32 | Cc1cc2c(cc1Cl)N(C[C@H](C)N)CC2 (as salt: fumarate) [Example 14] | 172 to 174 °C | – | – | – | – | –
33 | C[C@@H](CN1CCc2ccc(Br)cc21)NCC1CC1 (as salt: HCl) | 155 to 156 °C | – | – | – | – | –
34 | C[C@H](N)CN1CCc2ccc(N3CCOCC3)cc21 (as salt: fumarate) [Example 49, (S)-1-[6-(4-Morpholinyl)indolin-1-yl]-2-propylamine Fumarate] | 188 to 191 °C (dec.) | – | – | – | – | –
35 | C[C@H](N)CN1CCc2cc(Br)ccc21 [Example 33] | – | 2930 | 51 | 257 | 75 | –
36 | C[C@H](N)CN1CCc2c(Cl)cccc21 (as salt: fumarate) [Example 38] | 190 to 192 °C | – | – | – | – | –
37 | C[C@H](N)CN1CCc2ccc(F)cc21 [Example 9] | – | 5600 | 52 | 253 | 89 | –
38 | COc1ccc2c(c1)N(C[C@H](C)N)CC2 (as salt: fumarate) [Example 13] | 175 to 176 °C | – | – | – | – | –
39 | C[C@H](N)CN1CCc2ccc(C(F)(F)F)cc21 (as salt: fumarate) [Example 24] | 197 to 199 °C | – | – | – | – | –
40 | C[C@H](N)CN1CCc2ccc(Cl)c(Cl)c21 (as salt: fumarate) [Example 23] | 176 to 178 °C | – | – | – | – | –
41 | C[C@H](N)CN1CCc2ccc(Cl)c(Cl)c21 [Example 23] | – | 1350 | 34 | 354 | 76 | –
42 | C[C@H](N)CN1CCc2cc(Cl)ccc21 [Example 28] | – | 1540 | 63 | 238 | 75 | –
43 | C[C@H](N)CN1CCc2c(F)cccc21 [Example 35] | – | – | 30 | 727 | 51 | –
44 | CCSc1ccc2c(c1)N(C[C@H](C)N)CC2 [Example 40] | – | 836 | 64 | 3 | 95 | –
45 | CCCSc1ccc2c(c1)N(C[C@H](C)N)CC2 [Example 41] | – | – | – | 67 | 83 | –
46 | Cc1cccc2c1CCN2C[C@H](C)N [Example 32] | – | 1520 | 26 | 611 | 63 | –
47 | NCCN1CCc2ccc([N+](=O)[O-])cc21 [Example 53, 2-(6-Nitroindolin-1-yl)-1-ethylamine Fumarate] | – | – | 20 | – | 86 | EC50 (5-HT2A receptor; FLIPR, CHO cells, Fluo-3-AM, read-out: h5-HT2A EC50): 2310 nM; EC50 (5-HT2C receptor; [1]): 266 nM
48 | C[C@H](N)CN1CCc2cc(F)ccc21 [Example 29] | – | 3170 | 18 | 503 | 68 | –
49 | CCSc1cc2c(cc1F)CCN2C[C@H](C)N [Example 31] | – | 314 | 72 | 2 | 92 | –
50 | CCc1cccc2c1N(C[C@H](C)N)CC2 [Example 37] | – | 2730 | 27 | 391 | 69 | –
51 | Cc1cc2c(cc1F)CCN2C[C@H](C)N [Example 62, (S)-1-(5-Fluoro-6-methylindolin-1-yl)-2-propylamine Fumarate] | – | – | – | 329 | 54 | –
52 | C[C@H](N)CN1CCc2ccc(N3CCOCC3)cc21 [Example 49, (S)-1-[6-(4-Morpholinyl)indolin-1-yl]-2-propylamine Fumarate] | – | – | 5 | – | 69 | EC50 (5-HT2C receptor; [1]): 5480 nM
